Test results: US11472804B2, “Compositions and methods for modulating hair growth” (The Regents of the University of California, priority 2017, dated 2022)
“Also recorded” adds a separate entry of the source.

Key:
Ldh = Ldh enzyme activity assay in the epidermis of topically treated animals; assay type: in vivo, mice; conditions: topical, 48 hours during telogen
Protocol: (§1) FIG. 7A: Animals treated topically with UK-5099 (20 μM) show pigmentation and hair growth, indicative of entry into anagen, after 8 days of treatment. Full anagen, indicated by full coat of hair, is achieved after 14 days of treatment. […] Images shown are representative of at least 14 mice from 7 independent experiments. Scale bars indicate 100 micrometers. FIG. 7B: Graph showing time to observed phenotype in vehicle versus UK-5099 treated mice. n=6 mice per condition. Shown as mean±SEM. […] Ldh activity is indicated by purple stain; pink is nuclear fast red counterstain. Scale bars indicate 50 micrometers. FIG. 7D: Metabolomic analysis of Lactate on HFSCs isolated from UK-5099 treated skin for 48 hours; Each bar represents the average signal for each condition where n=9 mice pooled from 3 independent experiments. Shown as mean±SEM. Paired t-test was performed, p<0.05.
To determine whether Ldha expression patterns correlate with activity of the Ldh enzyme, a colorimetric-based enzymatic assay was used to assess Ldh activity capacity in situ. Typically performed on protein lysates or aliquots with a plate reader, the Ldh activity assay was adapted to work in situ on frozen tissue sections. […]
(§2) Quantification of the hair cycle across at least 6 pairs of animals (vehicle vs UK-5099) indicated a strong acceleration of the hair cycle, in as few as 6-9 days (FIG. 7B).

HFSCs = experiment: Metabolomic analysis of lactate on HFSCs isolated from treated skin; assay type: in vivo, mice; conditions: topical application, treated skin for 48 hours
Protocol: as §1, §2

hair cycle = experiment: Topical treatment of mice in telogen with UK-5099, hair cycle; assay type: in vivo
Protocol: as §1, §2

[1] = topical treatment of animals in telogen (day 50)

SMILES: N#C/C(=C\c1cn(-c2ccccc2)c2ccccc12)C(=O)O [UK-5099, (E)-2-Cyano-3-(1-phenyl-1H-indol-3-yl)acrylic acid]
- Ldh activity in HFSCs and interfollicular epidermis (Ldh): increased Ldh activity; also recorded: Ldh enzyme activity also seen in interfollicular epidermis
- total levels of lactate in sorted HFSCs (HFSCs): increases total levels of lactate
- acceleration of the hair cycle (hair cycle; [1]): robust acceleration of the hair cycle
- proliferation of the interfollicular epidermis (hair cycle; [1]): minor hyperproliferation of the interfollicular epidermis
- skin pathology, hair cycle stage (hair cycle; topical, 20 μM, at 8 weeks): enter an accelerated anagen
- full anagen, indicated by full coat of hair, time of treatment (hair cycle; topical, 20 μM, mice): 14 days
- pigmentation and hair growth, indicative of entry into anagen, time of treatment (hair cycle; topical, 20 μM, mice): 8 days
- quantification of the hair cycle, time to acceleration (hair cycle; topical, at least 6 pairs of animals, vehicle vs UK-5099): 6 to 9 days
